# Data: patent US9351974B2, “Substituted pteridinones for the treatment of cancer” (OSI Pharmaceuticals, LLC, priority 2011, dated 2016)
# Biological target: T1, His-tagged full-length RSK2 (RPS6KA3) (Homo sapiens, UniProt P51812)
# T1 construct: His-tagged full-length RSK2 (RPS6KA3, Invitrogen PV3323); His; purchased Invitrogen PV3323
# Test: RSK2 Omnia Assay for compound IC50 determination
# Assay type: biochemical
# Conditions: ATP 15 μM, n=2, read-out: Mean RSK2 Biochem IC50
# Summary of the method: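 Initial-rate slopes from continuous kinetic reads were fitted to a four-parameter equation for IC50 (n=2). Ki was then derived by Cheng-Prusoff assuming ATP-competitive inhibition. Reactions contained 15 μM ATP (Km 16.3 μM), 5 μM Omnia ST Peptide 6, and […] in 50 mM HEPES pH 7.5, 10 mM MgCl2, 1 mM DTT, 1% DMSO. Compounds spanned 11 threefold steps, […] final.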
# T1 sequence (P51812 whole entry): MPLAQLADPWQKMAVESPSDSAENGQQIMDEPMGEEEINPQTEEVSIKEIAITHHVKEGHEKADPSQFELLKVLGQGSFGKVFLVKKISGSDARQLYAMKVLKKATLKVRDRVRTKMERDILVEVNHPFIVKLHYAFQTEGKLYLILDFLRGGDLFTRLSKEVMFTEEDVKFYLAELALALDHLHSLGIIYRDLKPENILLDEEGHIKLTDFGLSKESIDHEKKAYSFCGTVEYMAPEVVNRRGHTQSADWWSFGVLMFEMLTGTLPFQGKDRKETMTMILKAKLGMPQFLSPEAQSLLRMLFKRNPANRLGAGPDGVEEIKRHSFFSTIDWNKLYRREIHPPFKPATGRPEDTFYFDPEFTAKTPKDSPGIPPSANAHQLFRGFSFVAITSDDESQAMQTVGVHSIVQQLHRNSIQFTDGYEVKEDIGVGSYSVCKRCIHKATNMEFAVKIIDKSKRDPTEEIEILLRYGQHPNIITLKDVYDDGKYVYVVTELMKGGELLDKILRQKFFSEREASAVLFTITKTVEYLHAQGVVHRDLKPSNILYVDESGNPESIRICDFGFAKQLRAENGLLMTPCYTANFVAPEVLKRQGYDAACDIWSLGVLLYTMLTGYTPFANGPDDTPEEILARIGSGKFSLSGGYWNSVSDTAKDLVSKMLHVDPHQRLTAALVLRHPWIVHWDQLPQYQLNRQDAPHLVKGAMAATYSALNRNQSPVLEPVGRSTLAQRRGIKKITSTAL
row,Structure (SMILES),IC50
1,"COc1ccc(N2C(=O)[C@@H](C)N(C3CCCCC3)c3nc(Nc4ccc5[nH]ncc5c4)ncc32)cc1F [Example 55, (7R)-8-cyclohexyl-5-(3-fluoro-4-methoxyphenyl)-2-(1H-indazol-5-ylamino)-7-methyl-7,8-dihydropteridin-6(5H)-one]",≤ 100 nM
2,"C[C@@H]1C(=O)N(c2cc(F)cc(C#N)c2)c2cnc(Nc3ccc4[nH]ncc4c3)nc2N1C1CCCCC1 [compound 112, 3-[(7R)-8-cyclohexyl-2-(1H-indazol-5-ylamino)-7-methyl-6-oxo-7,8-dihydropteridin-5(6H)-yl]-5-fluorobenzonitrile]",≤ 100 nM
3,"C[C@@H]1C(=O)N(c2cccc(C#N)c2)c2cnc(Nc3ccc4[nH]nc(Cl)c4c3)nc2N1C1CCCCC1 [compound 108, 3-[(7R)-2-[(3-chloro-1H-indazol-5-yl)amino]-8-cyclohexyl-7-methyl-6-oxo-7,8-dihydropteridin-5(6H)-yl]benzonitrile]",≤ 100 nM
4,"C[C@@H]1C(=O)N(c2cnc3ccccc3c2)c2cnc(Nc3ccc4[nH]ncc4c3)nc2N1C1CCCCC1 [Example 50, (7R)-8-cyclohexyl-2-(1H-indazol-5-ylamino)-7-methyl-5-(quinolin-3-yl)-7,8-dihydropteridin-6(5H)-one]",≤ 100 nM
5,"CC1C(=O)N(c2ccccc2)c2cnc(Nc3ccc4[nH]ncc4c3)nc2N1C1CCCC1 (stereo not drawn) [Example 64, 8-cyclopentyl-2-(1H-indazol-5-ylamino)-7-methyl-5-phenyl-7,8-dihydropteridin-6(5H)-one]",≤ 100 nM
6,"C[C@@H]1C(=O)N(c2csc(C(=O)O)c2)c2cnc(Nc3ccc4[nH]ncc4c3)nc2N1C1CCCCC1 [compound 124, 4-[(7R)-8-cyclohexyl-2-(1H-indazol-5-ylamino)-7-methyl-6-oxo-7,8-dihydropteridin-5(6H)-yl]thiophene-2-carboxylic acid]",≤ 100 nM
7,"C[C@@H]1C(=O)N(c2cccc(OC(F)(F)F)c2)c2cnc(Nc3ccc4[nH]ncc4c3)nc2N1C1CCCCC1 [Example 34, (7R)-8-cyclohexyl-2-(1H-indazol-5-ylamino)-7-methyl-5-[3-(trifluoromethoxy)phenyl]-7,8-dihydropteridin-6(5H)-one]",≤ 100 nM
8,"COc1c(Nc2ncc3c(n2)N(C2CCCCC2)[C@H](C)C(=O)N3c2cccc(C#N)c2)ccc2[nH]ncc12 [compound 102, 3-[(7R)-8-cyclohexyl-2-[(4-methoxy-1H-indazol-5-yl)amino]-7-methyl-6-oxo-7,8-dihydropteridin-5(6H)-yl]benzonitrile]",100 to 1000 nM
9,"CC(C)CN1c2nc(Nc3ccc4[nH]ncc4c3)ncc2N(c2ccccc2)C(=O)[C@H]1C [Example 79, (7R)-2-(1H-indazol-5-ylamino)-7-methyl-8-(2-methylpropyl)-5-phenyl-7,8-dihydropteridin-6(5H)-one]",≤ 100 nM
10,"CNC(=O)Cc1ccc(Nc2ncc3c(n2)N(CCC(C)C)C(C)C(=O)N3c2ccccc2)cc1 (stereo not drawn) [Example 5, N-methyl-2-(4-{[7-methyl-8-(3-methylbutyl)-6-oxo-5-phenyl-5,6,7,8-tetrahydropteridin-2-yl]amino}phenyl)acetamide]",100 to 1000 nM
11,"CC(C)CCn1c(=O)c(=O)n(-c2ccccc2)c2cnc(Nc3ccc4c(c3)CC(=O)N4)nc21 [Example 306, 8-(3-methylbutyl)-2-[(2-oxo-2,3-dihydro-1H-indol-5-yl)amino]-5-phenyl-5,8-dihydropteridine-6,7-dione]",> 1000 nM
12,"C[C@@H]1C(=O)N(c2ccc(C(=O)N(C)C)cc2)c2cnc(Nc3ccc4[nH]ncc4c3)nc2N1C1CCCCC1 [Example 27, 4-[(7R)-8-cyclohexyl-2-(1H-indazol-5-ylamino)-7-methyl-6-oxo-7,8-dihydropteridin-5(6H)-yl]-N,N-dimethylbenzamide]",≤ 100 nM
13,"C[C@@H]1C(=O)N(c2cccc(C#N)c2)c2cnc(Nc3ccc4[nH]ncc4c3)nc2N1CC1CC(F)(F)C1 [Example 83, 3-[(7R)-8-[(3,3-difluorocyclobutyl)methyl]-2-(1H-indazol-5-ylamino)-7-methyl-6-oxo-7,8-dihydropteridin-5(6H)-yl]benzonitrile]",≤ 100 nM
14,"C[C@@H]1C(=O)N(c2ccccc2)c2cnc(Nc3ccc4[nH]ncc4c3)nc2N1CCCO [Example 77, (7R)-8-(3-hydroxypropyl)-2-(1H-indazol-5-ylamino)-7-methyl-5-phenyl-7,8-dihydropteridin-6(5H)-one]",100 to 1000 nM
15,"COc1ccc(N2C(=O)[C@@H](C)N(C3CCC4(CC3)CC4)c3nc(Nc4cc(F)c5[nH]ncc5c4)ncc32)cc1OC [Example 299, (7R)-5-(3,4-dimethoxyphenyl)-2-[(7-fluoro-1H-indazol-5-yl)amino]-7-methyl-8-(spiro[2.5]oct-6-yl)-7,8-dihydropteridin-6(5H)-one]",≤ 100 nM
16,"Cc1cccc(N2C(=O)[C@@H](C)N(C3CCCCC3)c3nc(Nc4ccc5[nH]ncc5c4)ncc32)c1 [Example 30, (7R)-8-cyclohexyl-2-(1H-indazol-5-ylamino)-7-methyl-5-(3-methylphenyl)-7,8-dihydropteridin-6(5H)-one]",≤ 100 nM
17,"CC(C)CCN1c2nc(Nc3cc(F)c4[nH]ncc4c3)ncc2N(c2cccnc2)C(=O)[C@H]1C [Example 87, (7R)-2-[(7-fluoro-1H-indazol-5-yl)amino]-7-methyl-8-(3-methylbutyl)-5-(pyridin-3-yl)-7,8-dihydropteridin-6(5H)-one]",≤ 100 nM
18,"CNS(=O)(=O)c1ccc(N2C(=O)[C@@H](C)N(C3CCCCC3)c3nc(Nc4ccc5[nH]ncc5c4)ncc32)cc1 [Example 37, 4-[(7R)-8-cyclohexyl-2-(1H-indazol-5-ylamino)-7-methyl-6-oxo-7,8-dihydropteridin-5(6H)-yl]-N-methylbenzenesulfonamide]",≤ 100 nM

# The next lines start with the values.
row,IC50,Structure (SMILES)
1,≤ 100 nM,"C[C@@H]1C(=O)N(c2cccc(C#N)c2)c2cnc(Nc3ccc(S(N)(=O)=O)cc3)nc2N1C1CCC(F)(F)CC1 [compound 273, 4-{[(7R)-5-(3-cyanophenyl)-8-(4,4-difluorocyclohexyl)-7-methyl-6-oxo-5,6,7,8-tetrahydropteridin-2-yl]amino}benzenesulfonamide]"
2,≤ 100 nM,"C[C@@H]1C(=O)N(c2cccc(F)c2)c2cnc(Nc3cc(F)c4[nH]ncc4c3)nc2N1C1CCOCC1 [compound 189, (7R)-2-[(7-fluoro-1H-indazol-5-yl)amino]-5-(3-fluorophenyl)-7-methyl-8-(tetrahydro-2H-pyran-4-yl)-7,8-dihydropteridin-6(5H)-one]"
3,≤ 100 nM,"C[C@@H]1C(=O)N(c2cccnc2)c2cnc(Nc3cc(F)c(O)c(F)c3)nc2N1C1CCCCC1 [compound 160, (7R)-8-cyclohexyl-2-[(3,5-difluoro-4-hydroxyphenyl)amino]-7-methyl-5-(pyridin-3-yl)-7,8-dihydropteridin-(5H)-one.]"
4,100 to 1000 nM,CC1C(=O)N(c2ccccc2)c2cnc(Nc3ccc4c(c3)CC(=O)N4)nc2N1c1ccccc1 (stereo not drawn) [compound 179]
5,≤ 100 nM,"CC(C)Oc1ccc(N2C(=O)[C@@H](C)N(C3CCOCC3)c3nc(Nc4cc(F)c5[nH]c(=O)oc5c4)ncc32)cc1C#N [compound 205, 5-[(7R)-2-[(4-fluoro-2-oxo-2,3-dihydro-1,3-benzoxazol-6-yl)amino]-7-methyl-6-oxo-8-(tetrahydro-2H-pyran-4-yl)-7,8-dihydropteridin-5(6H)-yl]-2-(propan-2-yloxy)benzonitrile]"
6,≤ 100 nM,COc1ccc(N2C(=O)[C@@H](C)N(C3CCCCC3)c3nc(Nc4cc(F)c(O)c(F)c4)ncc32)cc1OC [compound 159]
7,≤ 100 nM,"C[C@@H]1C(=O)N(c2cccc(C#N)c2)c2cnc(Nc3cnc4[nH]ncc4c3)nc2N1C1CCC(F)(F)CC1 [compound 270, 3-[(7R)-8-(4,4-difluorocyclohexyl)-7-methyl-6-oxo-2-(1H-pyrazolo[3,4-b]pyridin-5-ylamino)-7,8-dihydropteridin-5(6H)-yl]benzonitrile]"
8,≤ 100 nM,"C[C@@H]1C(=O)N(c2cccnc2)c2cnc(Nc3ccc4[nH]c(=O)oc4c3)nc2N1C1CCCCC1 [compound 151, (7R)-8-cyclohexyl-7-methyl-2-[(2-oxo-2,3-dihydro-1,3-benzoxazol-6-yl)amino]-5-(pyridin-3-yl)-7,8-dihydropteridin-6(5H)-one]"
9,≤ 100 nM,"COc1ccc(N2C(=O)[C@@H](C)N(C3CCOCC3)c3nc(Nc4cnc5[nH]ncc5c4)ncc32)cc1C#N [compound 200, 2-methoxy-5-[(7R)-7-methyl-6-oxo-2-(1H-pyrazolo[3,4-b]pyridin-5-ylamino)-8-(tetrahydro-2H-pyran-4-yl)-7,8-dihydropteridin-5(6H)-yl]benzonitrile]"
10,100 to 1000 nM,"C[C@@H]1C(=O)N(c2cccc(C#N)c2)c2cnc(Nc3ccc4c(c3)CS(=O)(=O)N4)nc2N1[C@H]1CC[C@H](C)CC1 [compound 250, 3-[(7R)-2-[(2,2-dioxido-1,3-dihydro-2,1-benzothiazol-5-yl)amino]-7-methyl-8-(trans-4-methylcyclohexyl)-6-oxo-7,8-dihydropteridin-5(6H)-yl]benzonitrile]"
11,≤ 100 nM,"CC[C@@H]1C(=O)N(c2cccc(C#N)c2)c2cnc(Nc3ccc4[nH]nc(F)c4c3)nc2N1C1CCCCC1 [compound 295, 3-[(7R)-8-cyclohexyl-7-ethyl-2-[(3-fluoro-1H-indazol-5-yl)amino]-6-oxo-7,8-dihydropteridin-5(6H)-yl]benzonitrile]"
12,≤ 100 nM,"C[C@@H]1C(=O)N(c2ccc(N3CCN(C)CC3)nc2)c2cnc(Nc3cc(F)c4[nH]ncc4c3)nc2N1C1CCCCC1 [compound 139, (7R)-8-cyclohexyl-2-[(7-fluoro-1H-indazol-5-yl)amino]-7-methyl-5-[6-(4-methylpiperazin-1-yl)pyridin-3-yl]-7,8-dihydropteridin-6(5H)-one]"
